Assay results published in patent EP0745083B1, “2-HETEROARYL-5,11-DIHYDRO-6H-DIPYRIDO [3,2-b:2',3'-e][1,4]DIAZEPINES AND THEIR USE IN THE PREVENTION OR TREATMENT OF HIV INFECTION” (BOEHRINGER INGELHEIM PHARMACEUTICALS INC., priority 1994, dated 1995).

Tests used:
[1] = molecular target: T1, HIV-1 RT Y181C (Human immunodeficiency virus type 1 group M subtype B, UniProt P03367, Y780C); experiment: Reverse Transcriptase (RT) Assay, Y181C mutant enzyme; assay type: biochemical, Human Immunodeficiency Virus (HIV-1); conditions: 1 µM compound; for inhibition at 1 µM: read-out: Reverse Transciptase Assay % inhibition (1 µM) Y181C
T1 construct: Utilization of mutant RT eraymes (Y181C and Y181L, prepared by site-directed mutagenesis); made in house
Description: (§1) Among the enzymes for which Human Immunodeficiency Virus (HIV-1) encodes is a reverse transcriptase (1), so-named because it transcribes a DNA copy from an RNA template. This activity can be quantitatively measured in a cell-free enzyme assay, which has been previously described (2), and is based upon the observation that reverse transcriptase is able to use a synthetic template [poly r(C) primed with oligo d(G)] to transcribe a radio-labelled, acid-precipitable DNA strand utilizing ^3H-dGTP as a substrate. The assay described below utilizes the wild type (WT) enzyme, which is the predominant form of the enzyme observed in patients infected with HIV-1. Utilization of mutant RT eraymes (Y181C and Y181L, prepared by site-directed mutagenesis in which the tyrosine residue at codon 181 has been replaced by a cysteine or a leucine residue, respectively) and analogous assay conditions allows compounds to be evaluated for their effectiveness at inhibiting these mutant enzymes.
(§2) The 2X concentrated stock reaction mixture is aliquoted and stored at -20°C. The mixture is stable and thawed for use in each assay. This enzyme assay has been adapted to a 96 well microtiter plate system, and has been previously described (6). Tris buffer (50 mM, pH 7.4), vehicle (solvent diluted to match the compound dilution), or compounds in vehicle are dispensed into 96-well microtiter plates (10µL/well; 3 wells/ compound). The HIV-1 RT enzyme is thawed, diluted in 50mM Tris pH 7.4 so that fifteen µL of diluted enzyme contain 0.001 Unit (one unit is that amount of enzyme to transform 1 micromole of substrate per minute at 25°C), and fifteen µL are dispensed per well. Twenty µL of 0.12-0.5M EDTA are added to the first three wells of the microtiter plate. EDTA chelates the Mg^++ present and prevents reverse transcription. This group serves as background polymerization which is subtracted from all other groups. Twenty-five ul of the 2X reaction mixture are added to all wells and the assay is allowed to incubate at room temperature for 60 minutes. The assay is terminated by precipitating the DNA in each well with 50µL of 10% trichloracetic acid (TCA) (10% w/v) in sodium pyrophosphate (1% w/v). The microtiter plate is incubated for 15 minutes at 4°C and the precipitate is fixed onto #30 glass fiber paper (Schleicher & Schuell) using a Skatron semi-automatic harvester. The filters are then washed with additional TCA (5%) containing sodium pyrophosphate (1%), rinsed with aqueous ethanol (70%), dried, and transferred to scintillation vials (6). Each vial receives 2 mL of scintillation cocktail and is counted in a Beckman beta counter. The calculation for percent inhibition is as follows: % inhibition =(CPM Mean Test Value - CPM Mean Control Value X100)/(CPM Mean Control Value) [formula]

[2] = molecular target: T2, HIV-1 RT Y188L (Human immunodeficiency virus type 1 group M subtype B, UniProt P03367, Y787L); experiment: Reverse Transcriptase (RT) Assay, Y188L mutant enzyme; assay type: biochemical, Human Immunodeficiency Virus (HIV-1); conditions: 1 µM compound
T2 construct: effective against the reverse transcriptase of many mutant viruses; made in house

[3] = MTT assay (cytotoxicity); assay type: cell-based; conditions: human; H9 cells; five days incubation
Experimental: In order to roughly assess the cytotoxicity of the compounds provided by the invention, several such compounds were tested in the MTT Assay described below. Compounds having a relatively high CC50 are preferred.
The MTT [3-(4,5-dimethylthiazol-2-yl)-2,5 diphenyl tetrazolium bromide) assay is based on cleavage of tetrazolium bromide by metabolically active cells, resulting in a highly quantitative blue color. This assay has been previously described (1) but has been optimized for the purposes of the testing reported herein.
The H9 cell line (2), an established human lymphoma suspension cell line grown in RPMI 1640 supplemented with 10% fetal bovine serum, is used as the target cell line in the assay. Cells (100µL) are plated in microtest plate wells at a concentration of 10^5 cells per mL in the presence of varying concentrations of inhibitor. The cells are incubated at 37°C in a humidified CO2 incubator. Five days later, 20µL of MTT (5mg/mL in RPMI 1640, sonicated, 0.2 micron filtered, and stored at 4°C) is added to each well. After 4 hours additional incubation at 37°C, 60µL of Triton-X is added to each well and thoroughly mixed to aid the solubilization of the crystals. Absolute ethanol (5µL) is added to each well and the resulting mixture is incubated for 30 minutes at 60°C and immediately read on a plate reader (Dynatech) at a wavelength of 570nm.
Data from this assay are used to generate a nonlinear regression analysis which yields an CC50.

[4] = molecular target: T3, HIV-1 RT wild type (WT) enzyme (Human immunodeficiency virus type 1 group M subtype B, UniProt P03367); experiment: Reverse Transcriptase (RT) Assay, wild type enzyme (RNA-dependent DNA polymerase activity); assay type: biochemical, Human Immunodeficiency Virus (HIV-1); conditions: 1 µM compound; for inhibition at 1 µM: read-out: Reverse Transciptase Assay % inhibition (1 µM) WT
T3 construct: Reverse transcriptase enzyme from the LAV strain of Human Immunodeficiency Virus (HIV-1) (1) was isolated from the bacterial strain JM109; made in house; host or cells: E. coli JM109 (clone pBRTprt1+ in vector pIBI21, lac promoter)
Description: Utilizing the Reverse Transcriptase (RT) Assay described below, compounds can be tested for their ability to inhibit the RNA-dependent DNA polymerase activity of HIV-1 RT. Certain specific compounds described in the Examples which appear below, were so tested.
as §1
Reverse transcriptase enzyme from the LAV strain of Human Immunodeficiency Virus (HIV-1) (1) was isolated from the bacterial strain JM109 (3) expressing the DNA clone pBRTprt1+ (2) which is under the control of the lac promotor in the expression vector pIBI21 (4). An overnight culture grown in 2XYT medium (37°C, 225 rpm) (5) supplemented with 100 µg/mL ampicillin for positive selection is inoculated at a 1:40 dilution into M9 medium supplemented with 10µg/mL thiamine, 0.5% casamino acids, and 50 µg/mL ampicillin (5). The culture is incubated (37°C, 225 rpm) until it reaches an OD540 of 0.3-0.4. At that time the repressor inhibitor IPTG (isopropyl β-D-thiogalactopyranoside) is added to 0.5mM, and the mixture is incubated for 2 additional hours. Bacteria are pelleted, resuspended in a 50mM Tris, 0.6mM EDTA, 0.375M NaCl buffer and digested by the addition of lysozyme (1mg/mL) for 30 minutes on ice. The cells are lysed by the addition of 0.2% NP-40 and brought to 1M NaCl.
After removal of the insoluble debris by centrifugation, the protein is precipitated by the addition of 3 volumes of saturated aqueous ammonium sulfate. The enzyme is pelleted, resuspended in RT buffer (50mM Tris pH 7.5, 1mM EDTA, 5mM DTT, 0.1% NP-40, 0.1M NaCI, and 50% glycerol), and stored at -70°C for further use.
as §2, with “The filters are then washed with additional TCA (5%) containing sodium pyrophosphate (1%), rinsed with aqueous ethanol (70%), dried, and transferred to scintillation vials (6). Each vial receives 2 mL of scintillation cocktail and is counted in a Beckman beta counter. The calculation for percent inhibition is as follows: % inhibition =(CPM Mean Test Value - CPM Mean Control Value X100)/(CPM Mean Control Value) [formula]” left out

[5] = test system: HTLV-IIIB strain of HIV-1; experiment: Syncytia (human T-cell culture) assay; assay type: cell-based; conditions: Human immunodeficiency virus 1, IIIB, 96 h; c8166 cells; read four days after virus challenge
Experimental: In order to confirm that compounds which are active in the RT Assay also have the ability to inhibit HIV replication in a living system, compounds according to the invention were also tested in the human T-Cell Culture (Syncytia) Assay described below.
Formation of syncytia is a feature of in vitro cultures of CD4+ T-cells infected with HIV-1. In this assay, T-cells are treated with a putative replication inhibiting compound and then infected with HIV-1. After incubation, the culture is checked for the formation of syncytia. The absence or reduction in the number of syncytia is used as a measure of the test compound's ability to inhibit HIV replication.
The target cells, designated c8166, are a subclone of human lymphoma cells of T-cell origin and are established at an initial density of 5x10^4 per 100 ul in RPMI 1640 (+ 10% fetal bovine serum) culture medium in 96 well flat bottom plates. A selected amount of test compound, dissolved in DMSO, is included. After 24 hours, 50-100 TCID50's (the dose that results in induced effect in 50% of test cultures) of the HTLV-IIIB strain of HIV-1 (2) are inoculated into each culture. Control cultures receive compound or virus only. Four days after virus challenge, cultures are visually examined for the frequency and distribution of virus-induced giant cell syncytia. The percent inhibition by the test compound is determined by comparison with control values. Confirmation of the presence or absence of virus replication is accomplished by harvesting the cell free culture fluids from all experimental groups to determine the presence or absence of infectious progeny through the induction of syncytia formation in secondary human T-cell cultures after 3 days.

With CCN1c2ncccc2C(=O)N(C)c2ccc(-c3cnn(CC)c3)nc21 [Example 2, 5,11-Dihydro-11-ethyl-2-(1-ethylpyrazol-4-yl)-5-methyl-6H-dipyrido[3,2-b:2',3'-e][1,4]-diazepin-6-one] the inhibition at 1 µM [1] was 72%, the “Reverse Transciptase Assay % inhibition (1 µM) Y188L” value [2] was 13% and the CC50 at 120 h [3] was over 60 µM. The inhibition at 1 µM [4] was 67%.
In the case of CCCN1c2nc(-c3cn[nH]c3)ccc2NC(=O)c2cccnc21 [Example 4, 5,11-Dihydro-11-n-propyl-2-(4-pyrazolyl)-6H-dipyrido[3,2-b:2',3'-e][1,4]diazepin-6-one], the inhibition at 1 µM [1] is reported as 54%, the “Reverse Transciptase Assay % inhibition (1 µM) Y188L” value [2] is reported as 29% and the CC50 at 120 h [3] is reported as over 60 µM. The inhibition at 1 µM [4] was 60%.
In the case of CCCN1c2ncccc2C(=O)N(C)c2ccc(-c3cn[nH]c3)nc21 [Example 5, 5,11-Dihydro-5-methyl-11-n-propyl-2-(4-pyrazolyl)-6H-dipyrido[3,2-b:2',3'-e][1,4]diazepin 6-one], the inhibition at 1 µM [1] is reported as 90%, the “Reverse Transciptase Assay % inhibition (1 µM) Y188L” value [2] is reported as 63% and the CC50 at 120 h [3] is reported as over 60 µM. The inhibition at 1 µM [4] was 90%.
With CCN1c2ncccc2C(=O)N(C)c2ccc(-c3ccc[nH]3)nc21 [Example 13, 5,11-Dihydro-11-ethyl-5-methyl-2-(2-pyrrolyl)-6H-dipyrido[3,2-b:2',3'-e][1,4]diazepin-6-one] the inhibition at 1 µM [1] was 80%, the “Reverse Transciptase Assay % inhibition (1 µM) Y188L” value [2] was 17% and the inhibition at 1 µM [4] was 88%. The IC50 [5] was 0.16 µM.
For CN1C(=O)c2cccnc2N(C)c2nc(-c3ccc[nH]3)ccc21 [Example 24, 5,11-Dihydro-5,11-dimethyl-2-(2-pyrrolyl)-6H-dipyrido[3,2-b:2',3'-e][1,4]diazepin-6-one], the inhibition at 1 µM [1] was 50%, the “Reverse Transciptase Assay % inhibition (1 µM) Y188L” value [2] was 18% and the inhibition at 1 µM [4] was 39%.
In the case of CCN1c2ncccc2C(=O)N(C)c2ccc(-c3cn[nH]c3)nc21 [Example 26, 5,11-Dihydro-11-ethyl-5-methyl-2-(4-pyrazolyl)-6H-dipyrido[3,3-b:2',3'-e][1,4]diazepine-6-one], the “Reverse Transciptase Assay % inhibition (1 µM) Y181C” value [1] is reported as 33%, the “Reverse Transciptase Assay % inhibition (1 µM) Y188L” value ([2]; 1 µM) is reported as 20% and the “Reverse Transciptase Assay % inhibition (1 µM) WT” value [4] is reported as 64%.
In the case of CCN1c2ncccc2C(=O)N(C)c2ccc(-c3cc4cc(OC)ccc4[nH]3)nc21 [Example 27, 5,11-Dihydro-11-ethyl-2-(5-methoxyindol-2-yl)-5-methyl-6H-dipyrido[3,2-b:2',3'-e][1,4]-diazepin-6-one], the inhibition at 1 µM [1] is reported as 45%, the “Reverse Transciptase Assay % inhibition (1 µM) Y188L” value [2] is reported as 58% and the inhibition at 1 µM [4] is reported as 61%.
With CCN1c2ncccc2C(=O)N(C)c2ccc(-c3c[nH]c4ccccc34)nc21 [Example 28, 5,11-Dihydro-11-ethyl-2-(indol-3-yl)-5-methyl-6H-dipyrido[3,2-b:2',3'-e][1,4]diazepin-6-one] the inhibition at 1 µM [1] was 93%, the “Reverse Transciptase Assay % inhibition (1 µM) Y188L” value [2] was 72% and the CC50 at 120 h [3] was over 15 µM. It also gave an inhibition at 1 µM [4] of 96%.
